Laboratory results: patent US20240058450A1, “BCL-XL Inhibitory Compounds Having Low Cell Permeability and Antibody Drug Conjugates Including the Same” (AbbVie Inc., priority 2014, published 2024)
Read-outs that look alike come from different tables or passages of the source.

What was measured:
circulating platelets [1] = experiment: Number of circulating platelets in mice after a single intraperitoneal injection (thrombocytopenia); details: for thrombocytopenia: after injection of the compound; for Lowest thrombocyte count / Time to lowest count: single intraperitoneal injection
circulating platelets [2] = details: mouse, in vivo

| Compound | time of maximal thrombocytopenia following injection (circulating platelets [1]) [h] | thrombocytopenia (circulating platelets [1]) | platelet number after dosing (circulating platelets [1]; dose of 0.61 mg/kg) | decrease of platelet number (circulating platelets [1]; dose of 0.61 mg/kg, from normal count of approximately 6*10^5/mm^3) [fold] | Lowest thrombocyte count (circulating platelets [1]; dose 0.61 mg/kg) | Time to lowest count (circulating platelets [1]; dose 0.61 mg/kg) [h] | Lowest thrombocyte count (circulating platelets [1]; dose 25 mg/kg) | Time to lowest count (circulating platelets [1]; dose 25 mg/kg) [h] | thrombocytopenia (circulating platelets [2]) | time of maximal thrombocytopenia following injection (circulating platelets [2]) [h] | Time to lowest count (circulating platelets [2]; ip, 100 mg/kg) [h] | Lowest thrombocyte count (circulating platelets [2]; ip, 100 mg/kg, 6 h) |
| --- | --- | --- | --- | --- | --- | --- | --- | --- | --- | --- | --- | --- |
| CNCCOC12CC3(C)CC(C)(CC(Cn4ncc(-c5ccc(N6CCc7cccc(C(=O)Nc8nc9ccccc9s8)c7C6)nc5C(=O)O)c4C)(C3)C1)C2 [Example 1.13.7, 6-[8-(1,3-benzothiazol-2-ylcarbamoyl)-3,4-dihydroisoquinolin-2 (1H)-yl]-3-[1-({3,5-dimethyl-7-[2-(methylamino)ethoxy]tricyclo[3.3.1.1^3,7]dec-1-yl}methyl)-5-methyl-1H-pyrazol-4-yl]pyridine-2-carboxylic acid] | 6 | caused thrombocytopenia | 6*10^3 /mm^3 | 100 | 6 1/10^3 of the platelet#/mm^3 | 6 |  |  |  |  |  |  |
| Cc1c(-c2ccc(N3CCc4cccc(C(=O)Nc5nc6ccccc6s5)c4C3)nc2C(=O)O)cnn1CC12CC3CC(CC(C3)C1)C2 [Example A-1331852, reference compound] | 6 | caused thrombocytopenia |  |  |  |  | 9 1/10^3 of the platelet#/mm^3 | 6 |  |  |  |  |
| CC1(C)CCC(c2ccc(Cl)cc2)=C(CN2CCN(c3ccc(C(=O)NS(=O)(=O)c4ccc(N[C@H](CCN5CCOCC5)CSc5ccccc5)c(S(=O)(=O)C(F)(F)F)c4)cc3)CC2)C1 [Navitoclax] |  |  |  |  |  |  |  |  | caused thrombocytopenia | 6 | 6 | 10 1/10^3 of the platelet#/mm^3 |
